The values below come from patent US9133225B2, “Dual targeting anticancer agents” (priority 2013, dated 2015).

The subject of series [1] is A549 cells. The series is described as follows: JC-1 mitochondrial membrane potential assay. Format: cell-based. On the procedure:
To investigate the effect of Pt(IV)(α-TOS)(OEt) on mitochondria, changes in the mitochondrial membrane potential were assessed by the JC-1 assay. JC-1 (5,5′,6,6′-tetrachloro-1,1′3,3′-tetraethylbenzimidazolylcarbocyanine iodide) is a positively charged lipophilic dye, which accumulates in the mitochondria of healthy cells as red-emitting aggregates. When the mitochondrial membrane is compromised, JC-1 de-aggregates into monomeric forms that emit green fluorescence. […] These findings were confirmed using flow cytometry. A large population of untreated and Pt(IV)(α-TOS)(OEt)-treated A549 cells were examined.
In order to monitor the cell cycle, flow cytometry studies were carried out. A549 cells were incubated with and without the test compounds for 24 and 48 h at 37° C. Cells were harvested from adherent cultures by trypsinization and combined with all detached cells from the incubation medium to assess total cell viability. Following centrifugation at 1000 rpm for 5 min, cells were washed with PBS and then fixed with 70% ethanol in PBS. Fixed cells were collected by centrifugation at 2500 rpm for 3 min, washed with PBS and centrifuged as before. Cellular pellets were re-suspended in 50 μg/mL propidium iodide (Sigma) in PBS for nucleic acids staining and treated with 100 μg/mL RNaseA (Sigma). DNA content was measured on a FACSCalibur-HTS flow cytometer (BD Biosciences) using laser excitation at 488 nm and 20,000 events per sample were acquired. Cell cycle profiles were analysed using the ModFit software. For the apoptosis experiments, the Annexin V-FITC Early Apoptosis Detection Kit (Cell Signaling Technology) was used. […] The samples were kept on ice prior to being read on the FACSCalibur-HTS flow cytometer (BD Biosciences) (20,000 events per sample were acquired). Cell populations were analysed using the FlowJo software (Tree Star). […] The cells were incubated for 30 min, harvested, and analysed by using the FACSCalibur-HTS flow cytometer (BD Biosciences) (20,000 events per sample were acquired). […] Cell populations were analysed using the FlowJo software (Tree Star).

The subject of series [2] is A2780 ovarian carcinoma cells. The series can be described thus: MTT cytotoxicity assay, A2780. Particulars: read-out: cytotoxicity IC50; A2780, ovarian; MTT, 48 h treatment; spread in brackets. From the text:
(§1) (a) Dulbecco's Modified Eagle Medium (DMEM), Dulbecco's phosphate buffered saline (DPBS), fetal bovine serum (FBS) and 0.25% trypsin/EDTA solutions were purchased from Cellgro (Manassas, Va.). Penicillin-streptomycin solutions were purchased from Mediatech (Manassas, Va.). (b) HeLa (CCL-2TM) cells, A549, A2870, A2870/CP70, MCF-7, PC-3, and MRC-5 cells were purchased from American Type Culture Collection (ATCC, Manassas, Va., USA). (c) HCT116 cells were kindly donated by Laura Trudel (MIT). HeLa, A549, MCF-7, and MRC-5 cells were cultured using DMEM supplemented with 10% FBS and 1% penicillin-streptomycin. A2870, A2870/CP70, and PC-3 cells were cultured in RPMI supplemented with 10% FBS and 1% penicillin-streptomycin. HCT116 cells were cultured in McCoy's supplemented with 10% FBS and 1% penicillin-streptomycin. All cell-culture experiments were performed in the aforementioned media in an incubator operating at 37° C. and in the presence of a humidified atmosphere containing 5.0% CO2. Cells were harvested using a 0.25% trypsin/EDTA solution.
The cytotoxicity of the compounds was assessed by means of the MTT assay (MTT=3-(4,5-dimethyl-2-thiazolyl)-2,5-diphenyl-2H-tetrazolium bromide). Typically, on day one, ˜1×10^3 cells were seeded into 96-well plates in 100 μL media per well. […] The optical density for each well at 550 nm was measured with a microplate reader.

The next series concerns MCF-7 cells. The series is described as follows: MTT cytotoxicity assay, MCF-7. Particulars: read-out: cytotoxicity IC50; MCF-7, breast; MTT, 48 h treatment; spread in brackets.
Text: as §1
The cytotoxicity of the compounds was assessed by means of the MTT assay (MTT=3-(4,5-dimethyl-2-thiazolyl)-2,5-diphenyl-2H-tetrazolium bromide). Typically, on day one, ˜1×10^3 cells were seeded into 96-well plates in 100 μL media per well. The last row of the plate was left empty as a control for background absorption. The cells were allowed to grow for 24 h in the incubator at 37° C. On day two, a series of drug dilutions in growth media were prepared immediately prior to cell treatment. The media in the wells of the 96 plates were replaced with 100 μL of growth media containing appropriate drug concentrations. The cells were treated for 48 h at 37° C. in the incubator. On day four, a stock solution of MTT (5 mg/mL in PBS buffer) was diluted with media so that, when 100 μL of the media was added to each well, 10 μL of MTT stock was applied. […] The optical density for each well at 550 nm was measured with a microplate reader.
On the technique in general: Tetrazolium dyes change colour on reduction, which living cells bring about.

The subject of series [3] is A549 cells. The series is described as follows: Cell cycle flow cytometry (propidium iodide). Particulars: 3 μM. Format: cell-based. On the procedure:
Flow-cytometric measurements were also performed to determine the effect of Pt(IV)(α-TOS)(OEt) exposure on cell cycle progression. A549 cells were treated with Pt(IV)(α-TOS)(OEt), 3 μM, for 24, and 48 hours. The cell cycle distribution was compared with untreated cells. […] After 24 hours the untreated population had 78.1% in G1 phase, 17.7% in S phase, 4.5% in G2/M phase. After 48 hours the untreated population had 81.0% in G1 phase, 16.0% in S phase, 3.0% in G2/M phase. After 24 hours the treated population had 64.7% in G1 phase, 31.7% in S phase, 3.6% in G2/M phase. After 48 hours, the treated population had 70.4% in G1 phase, 26.2% in S phase, 3.4% in G2/M phase. […] It was therefore clear that Pt(IV)(α-TOS)(OEt) disturbed DNA synthesis and arrest at S-phase.
In order to monitor the cell cycle, flow cytometry studies were carried out. A549 cells were incubated with and without the test compounds for 24 and 48 h at 37° C. Cells were harvested from adherent cultures by trypsinization and combined with all detached cells from the incubation medium to assess total cell viability. Following centrifugation at 1000 rpm for 5 min, cells were washed with PBS and then fixed with 70% ethanol in PBS. Fixed cells were collected by centrifugation at 2500 rpm for 3 min, washed with PBS and centrifuged as before. Cellular pellets were re-suspended in 50 μg/mL propidium iodide (Sigma) in PBS for nucleic acids staining and treated with 100 μg/mL RNaseA (Sigma). DNA content was measured on a FACSCalibur-HTS flow cytometer (BD Biosciences) using laser excitation at 488 nm and 20,000 events per sample were acquired. Cell cycle profiles were analysed using the ModFit software. For the apoptosis experiments, the Annexin V-FITC Early Apoptosis Detection Kit (Cell Signaling Technology) was used. The manufacture's protocol was followed to carry out this experiment. Briefly, untreated and treated cells (1×10^5) were suspended in 1× annexin binding buffer (96 μL) (10 mM HEPES, 140 mM NaCl, 2.5 mM CaCl2, pH 7.4), then 1 μL FITC annexin V and 12.5 μL propidium iodine (10 μg/mL) were added to each sample and incubated on ice for 15 min. Subsequently, more binding buffer (150 μL) was added while gently mixing. The samples were kept on ice prior to being read on the FACSCalibur-HTS flow cytometer (BD Biosciences) (20,000 events per sample were acquired). Cell populations were analysed using the FlowJo software (Tree Star). For the JC-1 assay, the JC-1 Mitochondrial Membrane Potential Assay Kit (Cayman) was used. The manufacture's protocol was followed to carry out this experiment. Briefly, to untreated and treated cells grown in 6-well plates (at a density of 5×10^5 cells/mL) was added the JC-1 staining solution (100 μL/mL of cell media). The cells were incubated for 30 min, harvested, and analysed by using the FACSCalibur-HTS flow cytometer (BD Biosciences) (20,000 events per sample were acquired). The FL1 channel was used to detect unhealthy or apoptotic cells with collapsed mitochondria. Cell populations were analysed using the FlowJo software (Tree Star).
On the technique in general: A flow cytometer gives signals particle by particle.

By IC50 is commonly meant the concentration that gives 50% inhibition. As to `CC[O][Pt]([NH2])([NH2])([Cl])([Cl])[O]C(=O)CCC(=O)Oc1c(C)c(C)c2c(c1C)CCC(C)(CCCC(C)CCCC(C)CCCC(C)C)O2` (stereo not drawn) [Pt(IV)(α-TOS)(OEt)], the “cells expressing green JC-1 fluorescence (FL1-H), flow cytometry” value with A549 cells [1] (25 μM, 4 h) is reported as “a marked increase in cells expressing green fluorescence”. In the series on A549 cells [1] (cisplatin or Pt(IV)(α-TOS)(OEt) at 20 μM, 4 hours), the “JC-1 fluorescence (mitochondrial membrane disruption), microscopy” value is on record as “A similar phenomenon was observed”. Besides, in series [2], the IC50 turned out to be 20 nM. In the series on MCF-7 cells, the IC50 turned out to be 5900 nM. Moreover, in the series with A549 cells [3] (24 hours), the “cell population in G1 phase” value turned out to be 64.7%, the “cell population in G2/M phase” value turned out to be 3.6% and the “cell population in S phase” value is 31.7%. In the series on A549 cells [3] (48 hours), the “cell population in G1 phase” value is given as 70.4%, the “cell population in G2/M phase” value is recorded as 3.4% and the “cell population in S phase” value was 26.2%.
